Results from patent US20220047545A1 (priority 2020, published 2022).

Columns and labels:
[1] = target: RBD of SARS-CoV-2 spike protein binding to hACE2 receptor (Severe acute respiratory syndrome coronavirus 2, UniProt P0DTC2)
[2] = tested on: A549 cells expressing eGFP spike protein fusing with hACE2-overexpressing A549 cells; assay type: cell-based, human; conditions: 25 μg/ml, 4 h
[3] = target: T1, cellular hACE2 in hACE2/A549 cells (Homo sapiens, UniProt Q9BYF1); assay: Cellular hACE2 activity assay; conditions: cell-based
T1 construct: host or cells: A549 (human alveolar epithelial) stably overexpressing hACE2
T1 sequence (Q9BYF1 18-805): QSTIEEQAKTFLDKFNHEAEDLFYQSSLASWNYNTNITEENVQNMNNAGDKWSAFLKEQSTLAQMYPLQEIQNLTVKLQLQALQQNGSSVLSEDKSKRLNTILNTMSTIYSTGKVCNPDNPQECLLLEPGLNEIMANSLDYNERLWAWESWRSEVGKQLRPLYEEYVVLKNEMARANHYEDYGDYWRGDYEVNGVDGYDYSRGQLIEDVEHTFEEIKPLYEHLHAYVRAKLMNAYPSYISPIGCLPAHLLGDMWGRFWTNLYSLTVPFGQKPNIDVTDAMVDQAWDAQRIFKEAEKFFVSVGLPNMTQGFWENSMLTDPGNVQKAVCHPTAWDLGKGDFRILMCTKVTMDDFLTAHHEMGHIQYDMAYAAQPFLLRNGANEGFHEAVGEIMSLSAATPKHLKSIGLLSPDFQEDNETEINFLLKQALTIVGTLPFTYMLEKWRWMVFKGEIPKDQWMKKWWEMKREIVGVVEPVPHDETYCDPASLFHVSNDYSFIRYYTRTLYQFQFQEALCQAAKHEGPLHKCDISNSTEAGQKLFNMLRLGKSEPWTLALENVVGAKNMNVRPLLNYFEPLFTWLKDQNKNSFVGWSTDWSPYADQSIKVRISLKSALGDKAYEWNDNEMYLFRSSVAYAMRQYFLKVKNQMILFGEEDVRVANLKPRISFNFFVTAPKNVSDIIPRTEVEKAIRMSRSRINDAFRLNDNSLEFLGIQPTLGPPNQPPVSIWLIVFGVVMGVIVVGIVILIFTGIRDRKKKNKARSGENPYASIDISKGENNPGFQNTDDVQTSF
Method: ACE2 activity assays: To determine the inhibitory effect of selected polyphenols on the activity of cellular hACE2 protein, hACE2/A549 cells were seeded in 48-well plates and allowed to adhere for 24 h or until reaching 99-100% of confluence. […] (Dnp)-OH. Finally, the plates were incubated at 37° C. for 1 h, and the fluorescence signal was measured at Ex/Em=320/405 nm wavelength with a spectrofluorometer (Tecan Group Ltd, Switzerland). […] Results are expressed as a percentage of polyphenol-free control (mean+/−SD, n=6).

[4] = target: T2, recombinant hTMPRSS2 (Homo sapiens, UniProt O15393); assay: Recombinant TMPRSS2 activity assay (cell-free); assay type: biochemical; conditions: 10-25 μg/ml, 3 h treatment
T2 construct: purchased Creative BioMart
T2 sequence (O15393 whole entry): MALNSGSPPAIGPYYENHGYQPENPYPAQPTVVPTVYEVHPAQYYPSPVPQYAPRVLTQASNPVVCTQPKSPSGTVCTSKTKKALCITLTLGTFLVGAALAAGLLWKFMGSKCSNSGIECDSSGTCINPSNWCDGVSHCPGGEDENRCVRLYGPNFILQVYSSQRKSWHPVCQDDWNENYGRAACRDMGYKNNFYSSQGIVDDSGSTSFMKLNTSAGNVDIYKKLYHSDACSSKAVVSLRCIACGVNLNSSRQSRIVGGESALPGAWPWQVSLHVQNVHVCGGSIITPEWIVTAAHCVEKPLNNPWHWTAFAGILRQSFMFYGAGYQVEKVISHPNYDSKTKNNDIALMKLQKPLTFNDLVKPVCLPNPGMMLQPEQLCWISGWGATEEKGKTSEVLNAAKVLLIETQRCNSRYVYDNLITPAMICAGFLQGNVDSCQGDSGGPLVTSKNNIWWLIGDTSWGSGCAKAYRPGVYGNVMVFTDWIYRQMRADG
Method: To this reaction 10 μM of TMPRSS2 enzyme in assay buffer (50 mM Tris pH=8, 150 mM NaCl) was added. Following 1 h incubation at RT, detection of fluorescent signal was performed using a spectrofluorometer at Ex/Em=360/440 nm wavelength (Tecan Group Ltd, Switzerland). The positive control was 100 μM camostat mesylate. […] Results are expressed as a percentage of polyphenol-free control (mean+/−SD, n=6).
Fluorescence was assessed using a spectrofluorometer at extension/emission=360/440 nm (Tecan Group Ltd., Switzerland). The positive control was 100 μM camostat mesylate.

[5] = target: T3, human recombinant cathepsin L (Homo sapiens, UniProt P07711); assay: Cathepsin L activity, purified/recombinant enzyme (cell-free); assay type: biochemical
T3 construct: purchased BPS Bioscience
T3 sequence (P07711 114-333): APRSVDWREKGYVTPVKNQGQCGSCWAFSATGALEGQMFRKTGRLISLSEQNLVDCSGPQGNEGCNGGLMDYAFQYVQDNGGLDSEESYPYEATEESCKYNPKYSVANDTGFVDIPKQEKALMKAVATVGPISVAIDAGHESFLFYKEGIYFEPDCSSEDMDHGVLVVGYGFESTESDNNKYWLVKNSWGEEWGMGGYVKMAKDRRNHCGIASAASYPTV
Method: Positive control contained only cathepsin L, and negative control containing cathepsin L and cathepsin L inhibitor E64d (25 μM). The fluorescence was recorded at extension/emission=360/480 nm with a fluorescence spectrometer (Tecan Group Ltd., Switzerland).

[6] = target: T4, cathepsin L in A549 cells (Homo sapiens, UniProt P07711); assay: Cellular cathepsin L activity (lysates of treated A549 cells); assay type: cell-based; conditions: 25 μg/ml, not significant
T4 construct: A549 cells were seeded in 6-well plates; endogenous in cells; host or cells: A549 (ATCC)
T4 sequence (P07711 114-333): as above
Method: Cathepsin L activity assays: Cellular cathepsin L activity assays were performed utilizing a Cathepsin L Activity Assay Kit (Abcam, Cambridge, Mass.) according to the manufacturer's protocol. […] The samples were then centrifuged for 2 min. at 4° C. to remove any insoluble material. Supernatants were collected and transferred to clean tubes that were kept on ice. […] The plates were incubated at 37° C. for 1 h and fluorescence signal was measure at Ex/Em=400/505 nm wavelength with a spectrofluorometer (Tecan Group Ltd, Switzerland). […] Results are expressed as a percentage of polyphenol-free control (mean+/−SD, n=6).
Cathepsin L activity assay and its cellular expression: Cathepsin L activity: Experiment was performed in cell lysates using a Cathepsin L Activity Assay Kit (Abcam, Cambridge, Mass.) according to the manufacturer's protocol. […] After 3 minutes of centrifuged for at 4° C., supernatants were collected and enzymatic reaction was set up by mixing 50 μl of treated sample, 50 μl of control sample, 50 μl of background control sample, 50 μl of positive and negative controls. […] Samples were incubated at 37° C. for 1 hour, and fluorescence was recorded at extension/emission=400/505 nm with a fluorescence spectrometer (Tecan Group Ltd., Switzerland).

[7] = tested on: cathepsin L expression in A549 cells; assay: Cathepsin L expression in A549 cells (Western blot); assay type: cell-based, human
Method: Proteins (50 μg/well) were separated on 8-16% gradient SDS-PAGE gels and transferred to a PVDF membrane. […] Images were captured with Azure™ cSeries digital imaging system (Azure Biosystems, Dublin, Calif.) with auto-exposure settings. Densitometry was performed with NIH ImageJ software.
Cathepsin L expression: Expression of cathepsin L in cells was performed using Western blot. Briefly, 48 hours prior to the analysis, A549 cells were treated with PB at 5.0, and 10 μg/ml concentrations. Next, cells were washed with 1×PBS, lysed, and processed according to procedure described below.
Western blot: […] cells were lysed with lysis buffer [RIPA buffer plus 1× Protease Inhibitor (ThermoFisher Scientific, Waltham, Mass.)]. The protein estimation was performed with Dc Protein Assay (Bio-Rad, Hercules, Calif.). A 45 μg/well of protein was separated on 8-16% gradient SDS-PAGE gels and transferred to a PVDF membrane. Detection was performed with antibodies against cathepsin L at 1:200 dilution (Santa Cruz Biotechnology, Santa Cruz, Calif.) and against β-actin at 1:1000 dilution (Cell Signaling, Danvers, Mass.).

[8] = target: T5, hACE2 (Homo sapiens, UniProt Q9BYF1); assay: ACE2 binding assay (ACE2 Inhibitor Screening Assay Kit); parameters: purchased BPS Bioscience; conditions: polyphenols 5.0-25 μg/ml; PB 5.0 and 10 μg/ml
T5 sequence (Q9BYF1 18-805): as the sequence (Q9BYF1 18-805) above

[9] = target: T5, hACE2; assay: Recombinant hACE2 activity assay (cell-free); assay type: biochemical; parameters: purchased BPS Bioscience
Method: To determine the inhibitory effect of selected polyphenols on the activity of recombinant hACE2 protein, an ACE2 Activity Screening Assay Kit (BPS Bioscience, San Diego, Calif.) was used according to the manufacturer's protocol. […] The positive control was a sample containing only ACE2 enzyme, and the negative control was a sample containing ACE2 enzyme and 10% DMSO. ACE2 fluorogenic substrate (10 μM) was added to each well, and the plate was incubated for 1 h at RT. The fluorescence was measured at Ex/Em=535/595 nm wavelength using a spectrofluorometer (Tecan Group Ltd, Switzerland). […] Results are expressed as a percentage of polyphenol-free control (mean+/−SD, n=6).
The positive control contained only ACE2 enzyme, and the negative control additionally contained 10% DMSO.

[10] = tested on: lysosomal/endosomal pH in A549 cells; assay: Endosomal/lysosomal pH assay; assay type: cell-based, human; conditions: 5.0-25 μg/ml; control approximately pH=5.0
Method: Endosomal/lysosomal pH assay: Endosomal pH was assessed according to a previously reported protocol [54]. […] Acridine orange (Thermo Fisher Scientific, Waltham, Mass.) was added directly to each dish to reach a final concentration of 6.6 μg/ml. The cells were additionally incubated at 37° C. with 5% CO2 for 20 min. and washed three times with 1×PBS. Live Cell Imaging Solution (LCIS) (Thermo Fisher Scientific, Waltham, Mass.) was added to the wells, and images were taken using a Zeiss Axio Observer A1 fluorescence microscope with a 40× magnification. […] Results are expressed as a percentage of polyphenol-free control (mean+/−SD, n=3).
A concurrent experiment was performed using pHrodo™ Green AM Intracellular pH Indicator (Thermo Fisher Scientific, Waltham, Mass.) according to the manufacturer's protocol. […] The plate was incubated for 30 min. at 37° C., washed again with LCIS, and fluorescence was measured at Ex/Em=509/533 nm wavelength using a spectrofluorometer (Tecan Group Ltd, Switzerland). pH identification was performed based on standard curve, using an Intracellular pH Calibration Buffer Kit according to the manufacturer's protocol (Thermo Fisher Scientific, Waltham, Mass.). […] Next, the fluorescence was measured Ex/Em=509/533 nm wavelength. […]

| Compound | Binding with RBD (% of control ± SD) [1] | decrease of cell-cell fusion [2] | effect on ACE2 activity [3] | inhibition of recombinant hTMPRSS2 activity [4] | effect on recombinant cathepsin L [5] | decrease of cathepsin L activity in cell lysates [6] | cathepsin L expression at protein level ([7]; A549 cells) | direct binding to ACE2 receptor [8] | effect on ACE2 activity [9] | decrease of cathepsin L expression ([7]; starting from 10 μg/ml) | lysosomal/endosomal pH reached [10] |
| --- | --- | --- | --- | --- | --- | --- | --- | --- | --- | --- | --- |
| Oc1ccc2c(c1)OC[C@]1(O)Cc3cc(O)c(O)cc3[C@H]21 [Brazilin] | 100 ± 0.1 % of control | 40% | no effects | 20-30% | minor, not significant effect | 15% | neither brazilin nor curcumin down-regulated cathepsin L expression | does not bind to ACE2 directly | no effects | – | – |
| Theaflavin-3,3′-digallate | – | – | – | – | – | – | – | – | – | about 20% | 5.5-6.0 |
